{"source": "patent US12558007B2", "about": "(priority 2016, dated 2026)", "target": "acetylcholinesterase enzyme (Homo sapiens, UniProt P22303)", "sequence (P22303 32-614, species assumed)": "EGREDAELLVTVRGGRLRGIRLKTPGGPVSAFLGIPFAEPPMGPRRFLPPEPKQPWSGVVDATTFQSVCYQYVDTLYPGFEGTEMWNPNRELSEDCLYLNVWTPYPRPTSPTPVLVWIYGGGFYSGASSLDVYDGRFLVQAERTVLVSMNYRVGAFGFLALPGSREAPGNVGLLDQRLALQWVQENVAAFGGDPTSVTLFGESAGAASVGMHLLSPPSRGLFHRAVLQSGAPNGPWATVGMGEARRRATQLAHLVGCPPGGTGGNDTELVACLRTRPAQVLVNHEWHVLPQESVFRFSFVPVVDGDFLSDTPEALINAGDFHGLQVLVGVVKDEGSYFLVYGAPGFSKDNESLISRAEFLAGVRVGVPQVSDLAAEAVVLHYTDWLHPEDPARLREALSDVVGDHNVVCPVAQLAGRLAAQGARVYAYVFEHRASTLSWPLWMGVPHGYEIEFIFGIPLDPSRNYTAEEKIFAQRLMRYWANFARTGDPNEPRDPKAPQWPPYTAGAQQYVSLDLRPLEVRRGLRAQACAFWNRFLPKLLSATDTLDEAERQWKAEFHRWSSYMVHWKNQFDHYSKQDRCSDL", "assay": "Electrochemical sensor with acetylthiocholine reservoir in buffer containing acetylcholinesterase; inhibitor added, then sensor moved to fresh buffer", "assay_type": "biochemical", "conditions": "20 mM PBS, pH 7.4, 1 U/mL acetylcholinesterase, FIG. 13", "experimental": "In this example, a buffer was created to simulate endogenous cholinesterase activity in the interstitial fluid of a test subject. A sensor similar to that described in Example 6 was created with 100 nL of 1 M acetylthiocholine in the reactant reservoir. The sensor was placed in a buffer solution of 20 mM PBS, pH 7.4, and 1 U/mL of acetylcholinesterase enzyme to simulate a test subject. A reversible acetylcholinesterase inhibitor (Neostigmine Bromide) was then added to the buffer solution to simulate an organophosphate. The sensor was then removed from the buffer solution containing the inhibitor and placed in fresh buffer solution.", "data": [{"smiles": "CN(C)C(=O)Oc1cccc([N+](C)(C)C)c1", "note": "[Neostigmine Bromide]", "values": [{"measurement": "sensor signal created by acetylcholinesterase interacting with acetylthiocholine, after addition of the inhibitor", "setting": "100 nL of 1 M acetylthiocholine in reservoir", "value": "fell off after the addition of the inhibitor"}, {"measurement": "sensor signal after sensor removed from inhibitor solution and placed in fresh buffer (reversibility)", "setting": "fresh buffer", "value": "the signal rebounded"}]}]}
